Where two headings read alike, the source gives them in different places.
What was measured:
[1] = system: 4EBP1 T37/T46 phosphorylation (mTORC1); test: AlphaLISA/MSD analysis of 4EBP1 phosphorylation in MDA-MB-468 cells; type: cell-based; details: for IC50: MDA-MB-468 cells, read-out: p4EBP1 IC50
Method: (§1) Cell culture and reagents. Cells were obtained from ATCC, grown in appropriate medium supplemented with 10% fetal bovine serum and 1% penicillin/streptomycin and maintained at 37 °C in a humidified incubator at 5% CO 2.
(§2) AlphaLISA and MesoScale Discovery (MSD) analysis of 4EBP1, S6K and AKT phosphorylation. mTOR substrate phosphorylation in MDA-MB-468 cells was assayed using AlphaLISA SureFire Ultra kits for p4EBP1 Thr37/46, p-P70S6K Thr389 and p-AKT1/2/3 Ser473 (PerkinElmer), and MSD Multi-Array Assay Systems for Phospho-4EBP1 (Thr37/46) and Phospho-AKT (Ser473) (MSD). Cells were seeded at 25,000 cells per well and exposed the next day to serial three-fold dilutions of compounds in complete medium with 0.1% dimethylsulfoxide (DMSO). After indicated incubation times, cells were lysed and AlphaLISA or MSD performed according to the manufacturers’ protocols. Samples were read using an EnVision Multilabel Plate Reader (PerkinElmer) using standard AlphaLISA settings or using an MSD plate reader. Data were plotted as a function of logM [compound] with a sigmoidal concentration response (variable slope) model fitted to the data to estimate the inhibitor half-maximum effective concentration (EC 50) in Prism 7 (GraphPad). Alternatively, results were analyzed as percentage of control in which 0% was set as signal from 1 μM Torin1 and 100% was set as the mean of DMSO wells on each plate, and inhibitor EC 50 was estimated as described

tumor p4EBP1 = test: Tumor PD after a single dose in the MCF-7 CDX model; type: in vivo, mice; details: MCF-7 CDX
[2] = system: AKT S473 phosphorylation (mTORC2); test: AlphaLISA/MSD analysis of AKT phosphorylation in MDA-MB-468 cells; type: cell-based; details: MDA-MB-468 cells, read-out: pAKT IC50
Method: as §1, §2

p-P70S6K Thr389 = test: AlphaLISA/MSD analysis of S6K phosphorylation in MDA-MB-468 cells; type: cell-based; details: MDA-MB-468 cells, read-out: pS6K IC50
Method: as §1, §2

Row | Compound | IC50 ([1]; Homo sapiens) [nM] | IC50 ([2]; Homo sapiens) [nM] | IC50 (p-P70S6K Thr389; Homo sapiens) [nM] | other results
1 | CO[C@H]1C[C@@H]2CC[C@@H](C)[C@@](O)(O2)C(=O)C(=O)N2CCCC[C@H]2C(=O)O[C@H]([C@H](C)C[C@@H]2CC[C@@H](OCCO)[C@H](OC)C2)CC(=O)[C@H](C)/C=C(\C)[C@@H](O)[C@@H](OC)C(=O)[C@H](C)C[C@H](C)/C=C/C=C/C=C/1C [compound 4, everolimus, reference compound] | > 1000 | > 1000 | 0.07 | effect on tumor p4EBP1 levels (tumor p4EBP1; single dose (38, 40 ip; everolimus 5 mg/kg oral)): minimal effect
2 | CC(C)n1nc(-c2ccc3oc(N)nc3c2)c2c(N)ncnc21 [compound 5, sapanisertib, reference compound] | – | 1.8 | – | inhibition of tumor p4EBP1 (tumor p4EBP1; 4 h after intraperitoneal dosing at 1 mg/kg): > 80%
3 | CO[C@H]1C[C@@H]2CC[C@@H](C)[C@@](O)(O2)C(=O)C(=O)N2CCCC[C@H]2C(=O)O[C@H]([C@H](C)C[C@@H]2CC[C@@H](OCCCCc3cn(CCOCCOCCOCCOCCOCCC(=O)NCCCCn4nc(-c5ccc6oc(N)nc6c5)c5c(N)ncnc54)nn3)[C@H](OC)C2)CC(=O)[C@H](C)/C=C(\C)[C@@H](O)[C@@H](OC)C(=O)[C@H](C)C[C@H](C)/C=C/C=C/C=C/1C [compound 28] | 25 | 33 | 0.37 | –
4 | CO[C@H]1C[C@@H]2CC[C@@H](C)[C@@](O)(O2)C(=O)C(=O)N2CCCC[C@H]2C(=O)O[C@H]([C@H](C)C[C@@H]2CC[C@@H](OC(=O)NCCOCCOCCOCCOCCOCCOCCOCCOCCC(=O)NCCCCn3nc(-c4ccc5oc(N)nc5c4)c4c(N)ncnc43)[C@H](OC)C2)CC(=O)[C@H](C)/C=C(\C)[C@@H](O)[C@@H](OC)C(=O)[C@H](C)C[C@H](C)/C=C/C=C/C=C/1C [compound 29] | 1.7 | 3.6 | 0.61 | –
5 | CO[C@H]1C[C@@H]2CC[C@@H](C)[C@@](O)(O2)C(=O)C(=O)N2CCCC[C@H]2C(=O)O[C@H]([C@H](C)C[C@@H]2CC[C@@H](OC(=O)NCCOCCOCCOCCOCCOCCOCCOCCOCCC(=O)N3CCc4cc(Cn5nc(-c6ccc7oc(N)nc7c6)c6c(N)ncnc65)ccc4C3)[C@H](OC)C2)CC(=O)[C@H](C)/C=C(\C)[C@@H](O)[C@@H](OC)C(=O)[C@H](C)C[C@H](C)/C=C/C=C/C=C/1C [compound 30] | 0.42 | 4.7 | 0.19 | –
6 | CO[C@H]1C[C@@H]2CC[C@@H](C)[C@@](O)(O2)C(=O)C(=O)N2CCCC[C@H]2C(=O)O[C@H]([C@H](C)C[C@@H]2CC[C@@H](OC(=O)NCCOCCOCCOCCOCCOCCOCCOCCOCCC(=O)NCCS(=O)(=O)c3ccc(C(=O)N4CCOc5ccc(-c6ccc(N)nc6)cc5C4)c(C)c3F)[C@H](OC)C2)CC(=O)[C@H](C)/C=C(\C)[C@@H](O)[C@@H](OC)C(=O)[C@H](C)C[C@H](C)/C=C/C=C/C=C/1C [compound 31] | 0.7 | 2.9 | 0.23 | –
7 | CO[C@@H](C[C@@H]1CC[C@@H](C)[C@](O)(C(=O)C(=O)N2CCCC[C@H]2C(=O)O)O1)/C(C)=C/C=C/C=C/[C@@H](C)C[C@@H](C)C(=O)[C@H](OC)[C@H](O)/C(C)=C/[C@@H](C)C(=O)/C=C\[C@H](C)C[C@@H]1CC[C@@H](OCCCCc2cn(CCOCCOCCOCCOCCOCCOCCOCCOCCC(=O)NCCCCn3nc(-c4ccc5oc(N)nc5c4)c4c(N)ncnc43)nn2)[C@H](OC)C1 [compound 32] | 180 | 450 | 59 | –
8 | CO[C@H]1C[C@@H]2CC[C@@H](C)[C@@](O)(O2)C(=O)C(=O)N2CCCC[C@H]2C(=O)O/C([C@H](C)C[C@@H]2CC[C@@H](OC(=O)NCCOCCOCCOCCOCCOCCOCCOCCOCCC(=O)N3CCc4cc(Cn5nc(-c6ccc7oc(N)nc7c6)c6c(N)ncnc65)ccc4C3)[C@H](OC)C2)=C/C(=O)[C@H](C)/C=C(\C)[C@@H](O)[C@@H](OC)C(=O)[C@H](C)C[C@H](C)/C=C/C=C/C=C/1C [compound 33] | 320 | > 1000 | 80 | –
9 | BGT226 [compound 7, reference compound] | – | – | – | IC50 [1]: 4.4 nM; selectivity (mTORC1/mTORC2 ratio) ([1]; pAKT IC50 versus p4EBP1 IC50, MDA-MB-468 cells): 0.3; IC50 [2]: 1.4 nM; IC50 (p-P70S6K Thr389): 0.27 nM

— publication PMC9841523 (Journal of Medicinal Chemistry, 2022)
